≈ marks a conversion by molar mass, not a printed value. Like-named read-outs stand apart in the source and are kept apart here.
Tested on: P. aeruginosa
Assay: MIC, broth microdilution, CDC/FDA Antibiotic Resistance Isolate Bank (Example 7, Tables 10, 15)
Type: cell-based
Details: for MIC: Pseudomonas aeruginosa, read-out: MIC
[1] = 26 metallo-carbapenemase-producing P. aeruginosa strains, β-lactamase inhibitor µg/mL in parentheses
[2] = 96 strains of P. aeruginosa, β-lactamase inhibitor µg/mL in parentheses

NCC[C@H](O)C(=O)N[C@@H]1C[C@H](N)[C@@H](O[C@H]2O[C@H](CN)[C@@H](O)[C@H](O)[C@H]2O)[C@H](O)[C@H]1O[C@H]1O[C@H](CO)[C@@H](O)[C@H](N)[C@H]1O [Amikacin, amikacin]
MIC against 26 metallo-carbapenemase-producing strains MIC50 [1]: >64 µg(mL) | MIC against 26 metallo-carbapenemase-producing strains MIC90 [1]: >64 µg(mL) | MIC against 96 strains of P. aeruginosa MIC50 [2]: 8 µg(mL) | MIC against 96 strains of P. aeruginosa MIC90 [2]: >64 µg(mL) | MIC (P. aeruginosa KUB No. 579, AR Bank # 447): 8 µg/mL (≈ 13.7 µM) | MIC (P. aeruginosa KUB No. 5083, AR Bank # 250): > 64 µg/mL | MIC (P. aeruginosa KUB No. 5551, AR Bank # 54): 4 µg/mL (≈ 6.83 µM) | MIC (P. aeruginosa KUB No. 5561, AR Bank # 64): 1 µg/mL (≈ 1.71 µM) | MIC (P. aeruginosa KUB No. 5587, AR Bank # 90): 32 µg/mL (≈ 54.6 µM) | MIC (P. aeruginosa KUB No. 5589, AR Bank # 92): > 64 µg/mL | MIC (P. aeruginosa KUB No. 5591, AR Bank # 94): 32 µg/mL (≈ 54.6 µM) | MIC (P. aeruginosa KUB No. 5592, AR Bank # 95): 0.5 µg/mL (≈ 0.854 µM) | MIC (P. aeruginosa KUB No. 5597, AR Bank # 100): > 64 µg/mL | MIC (P. aeruginosa KUB No. 5600, AR Bank # 103): 32 µg/mL (≈ 54.6 µM) | MIC (P. aeruginosa KUB No. 5602, AR Bank # 105): 8 µg/mL (≈ 13.7 µM) | MIC (P. aeruginosa KUB No. 5605, AR Bank # 108): > 64 µg/mL | MIC (P. aeruginosa KUB No. 5607, AR Bank # 110): > 64 µg/mL | MIC (P. aeruginosa KUB No. 5608, AR Bank # 111): > 64 µg/mL | MIC (P. aeruginosa KUB No. 5662, AR Bank # 229): 16 µg/mL (≈ 27.3 µM) | MIC (P. aeruginosa KUB No. 5663, AR Bank # 230): > 64 µg/mL | MIC (P. aeruginosa KUB No. 5664, AR Bank # 231): 8 µg/mL (≈ 13.7 µM) | MIC (P. aeruginosa KUB No. 5665, AR Bank # 232): 8 µg/mL (≈ 13.7 µM) | MIC (P. aeruginosa KUB No. 5666, AR Bank # 23): 4 µg/mL (≈ 6.83 µM) | MIC (P. aeruginosa KUB No. 5667, AR Bank # 234): 8 µg/mL (≈ 13.7 µM) | MIC (P. aeruginosa KUB No. 5668, AR Bank # 235): 64 µg/mL (≈ 109 µM) | MIC (P. aeruginosa KUB No. 5669, AR Bank # 236): 8 µg/mL (≈ 13.7 µM) | MIC (P. aeruginosa KUB No. 5670, AR Bank # 237): 2 µg/mL (≈ 3.42 µM) | MIC (P. aeruginosa KUB No. 5671, AR Bank # 238): 4 µg/mL (≈ 6.83 µM) | MIC (P. aeruginosa KUB No. 5672, AR Bank # 239): > 64 µg/mL | MIC (P. aeruginosa KUB No. 5673, AR Bank # 240): 64 µg/mL (≈ 109 µM) | MIC (P. aeruginosa KUB No. 5674, AR Bank # 241): 32 µg/mL (≈ 54.6 µM) | MIC (P. aeruginosa KUB No. 5675, AR Bank # 242): 64 µg/mL (≈ 109 µM) | MIC (P. aeruginosa KUB No. 5676, AR Bank # 243): 32 µg/mL (≈ 54.6 µM) | MIC (P. aeruginosa KUB No. 5677, AR Bank # 244): 8 µg/mL (≈ 13.7 µM) | MIC (P. aeruginosa KUB No. 5678, AR Bank # 245): > 64 µg/mL | MIC (P. aeruginosa KUB No. 5679, AR Bank # 246): > 64 µg/mL | MIC (P. aeruginosa KUB No. 5680, AR Bank # 247): 4 µg/mL (≈ 6.83 µM) | MIC (P. aeruginosa KUB No. 5681, AR Bank # 248): 64 µg/mL (≈ 109 µM) | MIC (P. aeruginosa KUB No. 5682, AR Bank # 249): > 64 µg/mL | MIC (P. aeruginosa KUB No. 5684, AR Bank # 251): 8 µg/mL (≈ 13.7 µM) | MIC (P. aeruginosa KUB No. 5685, AR Bank # 252): 0.5 µg/mL (≈ 0.854 µM) | MIC (P. aeruginosa KUB No. 5687, AR Bank # 254): > 64 µg/mL | MIC (P. aeruginosa KUB No. 5688, AR Bank # 255): > 64 µg/mL | MIC (P. aeruginosa KUB No. 5689, AR Bank # 256): 2 µg/mL (≈ 3.42 µM) | MIC (P. aeruginosa KUB No. 5690, AR Bank # 257): 8 µg/mL (≈ 13.7 µM) | MIC (P. aeruginosa KUB No. 5691, AR Bank # 258): 4 µg/mL (≈ 6.83 µM) | MIC (P. aeruginosa KUB No. 5692, AR Bank # 259): 2 µg/mL (≈ 3.42 µM) | MIC (P. aeruginosa KUB No. 5693, AR Bank # 260): 64 µg/mL (≈ 109 µM) | MIC (P. aeruginosa KUB No. 5694, AR Bank # 261): 16 µg/mL (≈ 27.3 µM) | MIC (P. aeruginosa KUB No. 5695, AR Bank # 262): 4 µg/mL (≈ 6.83 µM) | MIC (P. aeruginosa KUB No. 5696, AR Bank # 263): 32 µg/mL (≈ 54.6 µM)
